According to publication PMC2680961, “Homologous desensitization of signalling by the alpha (α) isoform of the human thromboxane A2 receptor: A specific role for nitric oxide signalling” (Biochimica et Biophysica Acta, 2007):
Residue numbers refer to the chain shown, from its start. Structures can show the parent of a compound that is named as a salt.

Key:
Assay type in all cases: cell-based
[1] = molecular target: T1, TPα (Homo sapiens, UniProt P21731); assay: Intracellular calcium mobilization, HEK.TPα cells; conditions: for secondary U46619 [Ca2+]i response relative to primary response: TPα
T1 construct: expressed in transfected cells
T1 sequence (P21731 1-343): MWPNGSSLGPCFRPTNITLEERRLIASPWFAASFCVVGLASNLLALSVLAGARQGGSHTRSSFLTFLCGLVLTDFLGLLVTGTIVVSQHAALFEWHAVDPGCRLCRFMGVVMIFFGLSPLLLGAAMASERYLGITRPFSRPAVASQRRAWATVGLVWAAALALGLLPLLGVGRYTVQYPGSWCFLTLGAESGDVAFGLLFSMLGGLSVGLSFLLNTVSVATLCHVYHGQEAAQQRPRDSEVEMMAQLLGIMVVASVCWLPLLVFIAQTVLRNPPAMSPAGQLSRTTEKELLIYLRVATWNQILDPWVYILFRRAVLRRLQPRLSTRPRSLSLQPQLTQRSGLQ
Protocol: (§1) Measurement of intracellular calcium mobilization ([Ca^2+]i) in FURA2/AM preloaded HEK 293 cell lines (2 × 10^6 cells/dish), each transiently co-transfected with pADVA (10 μg), and pCMV:Gαq (25 μg), was carried out as previously described. To investigate the effect of GRK2/βARK1 on TP-mediated [Ca^2+]i mobilization, HEK.TPα or HEK.TPβ cells (2 × 10^6 cells/dish) were co-transfected with pADVA (10 μg), pCMV:Gαq (25 μg) along with pRK5:βARK1^495–689 (25 μg), encoding a dominant negative form of GRK2/βARK1[39]. Approximately 48 h post-transfection, cells were harvested by scraping, washed twice in ice-cold PBS and resuspended in HBSSHB (modified Ca^2+/Mg^2+-free Hank's buffered salt solution, containing […], pH 7.67, 0.1% bovine serum albumin (BSA)) buffer at 10^7 cells/ml and incubated in the dark with 5 μM FURA2/AM for 45 min at 37 °C. Cells were collected by centrifugation (900×g, 5 min), washed once in an equal volume of HBSSHB, and were finally resuspended in HBSSHB buffer at 10^7 cells/ml and kept at room temperature in the dark for 40 min. For each measurement of [Ca^2+]i mobilization, aliquots of cells were diluted to 0.825 × 10^6 cells/ml in HBSSHB, 1 mM CaCl2 and FURA2 fluorescence was recorded (2 ml aliquots of cells) at 37^ °C with gentle stirring with a Perkin Elmer-Cetus LS50-B spectrofluorometer at excitation wavelengths of 340 nm and 380 nm and emission wavelength of 510 nm, respectively.
[…] To assess agonist-mediated homologous desensitization, cells (0.825 × 10^6 cells/ml; 2 ml per assay) were stimulated with 1 μM U46619 (Primary stimulation) or, as a control, with the vehicle for 4 min; thereafter, cells were collected by centrifugation (900×g, 5 min); were washed twice in 2 ml HBSSHB, 1 mM CaCl2; and finally resuspended in 2 ml HBSSHB,1 mM CaCl2 and were left to recover over various time intervals (ranging from 0 to 60 min); thereafter, cells re-stimulated with 1 μM U46619 (Secondary stimulation) and changes in [Ca^2+]i mobilization were monitored as a function of time. To assess the role of protein kinase (PK) A, PKC or PKG on U46619-mediated desensitization of TPα signalling, cells were pre-incubated with the PKA inhibitor H-89 (10 μM), the PKC inhibitor GF 109203X (50 nM) or the PKG inhibitor KT 5823 (50 nM), for 15 min and respective kinase inhibitors were maintained throughout the primary/secondary U46619-stimulations and during the washes.
(§2) The vehicle had no effect on U46619-mediated [Ca^2+]i mobilization. Calibration of the signal was performed in each sample by adding 0.2% Triton X-100 to obtain the maximal fluorescence ratio (Rmax) and then 1 mM EGTA to obtain the minimal fluorescence ratio (Rmin). The ratio of the fluorescence at 340 nm to that at 380 nm is a measure of [Ca^2+]i, which assumes a Kd of 225 nM Ca^2+ for FURA2/AM. The results presented in the figures are representative data from at least three or four independent experiments and are plotted as changes in Ca^2+i mobilized (Δ[Ca^2+]i (nM)) as a function of time (s) upon ligand stimulation. Changes in [Ca^2+]i mobilization were determined by measuring peak rises in [Ca^2+]i mobilized (Δ[Ca^2+]i) and were calculated as mean changes in Δ[Ca^2+]i ± S.E.M. (nM).

[2] = molecular target: T2, TP^Δ328 (Homo sapiens, UniProt P21731); assay: Intracellular calcium mobilization, HEK.TP^Δ328 cells; conditions: HEK.TP^Δ328
T2 construct: expressed in transfected cells
T2 sequence (P21731 1-328): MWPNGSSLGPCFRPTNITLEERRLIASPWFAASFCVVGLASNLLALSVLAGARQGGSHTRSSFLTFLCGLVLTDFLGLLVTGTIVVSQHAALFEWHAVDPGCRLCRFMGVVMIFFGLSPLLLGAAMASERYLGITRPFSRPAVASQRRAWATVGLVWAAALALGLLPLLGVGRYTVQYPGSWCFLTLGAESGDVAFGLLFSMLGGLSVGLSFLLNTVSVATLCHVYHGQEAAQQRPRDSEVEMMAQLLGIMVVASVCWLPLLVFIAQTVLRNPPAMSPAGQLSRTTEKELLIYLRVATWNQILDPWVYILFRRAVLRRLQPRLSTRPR
Protocol: as §1
(§3) Cells were stimulated with the TP agonist U46619 (1 μM) and changes in [Ca^2+]i mobilization were monitored as a function of time. To assess agonist-mediated homologous desensitization, cells (0.825 × 10^6 cells/ml; 2 ml per assay) were stimulated with 1 μM U46619 (Primary stimulation) or, as a control, with the vehicle for 4 min; thereafter, cells were collected by centrifugation (900×g, 5 min); were washed twice in 2 ml HBSSHB, 1 mM CaCl2; and finally resuspended in 2 ml HBSSHB,1 mM CaCl2 and were left to recover over various time intervals (ranging from 0 to 60 min); thereafter, cells re-stimulated with 1 μM U46619 (Secondary stimulation) and changes in [Ca^2+]i mobilization were monitored as a function of time. To assess the role of protein kinase (PK) A, PKC or PKG on U46619-mediated desensitization of TPα signalling, cells were pre-incubated with the PKA inhibitor H-89 (10 μM), the PKC inhibitor GF 109203X (50 nM) or the PKG inhibitor KT 5823 (50 nM), for 15 min and respective kinase inhibitors were maintained throughout the primary/secondary U46619-stimulations and during the washes.
as §2

[3] = molecular target: T1, TPα; assay: Agonist-mediated TP phosphorylation in whole cells, HEK.TPα
Protocol: (§4) Agonist-mediated TP phosphorylation in whole cells (1.8–2 × 10^6 cells/10 cm dish) was performed essentially as previously described. Briefly, cells were transiently co-transfected with pADVA (10 μg), pCMV:Gαq (25 μg) plus pcDNA:βArrestin2 (25 μg) approximately 48 h prior to labelling. Thereafter, cells were washed once in phosphate-free DMEM, 10% dialysed FBS and were metabolically labelled for 60 min in the same medium (2 ml/10 cm dish) containing 100 μCi/ml [^32P] orthophosphate (8000–9000 Ci/mmol) at 37 °C, 5% CO2. Where appropriate, the PKG kinase inhibitor KT 5823 (50 nM) or its vehicle was added during the labelling period. Thereafter, U46619 (1 μM) or an equivalent volume of vehicle (0.01% ethanol in HBS; 20 μl) were added and cells were incubated for 10 min at 37 °C, 5% CO2. Reactions were terminated by transferring the dishes to ice and aspirating the labelled medium and HA-epitope tagged TP receptors were processed and immunoprecipitated using the anti-HA 101R antibody as previously described. Electroblots were then exposed to Xomat XAR (Kodak) film to detect ^32P-labelled proteins. Thereafter, blots were subject to phosphorimage analysis, and the intensities of agonist-induced phosphorylation were expressed in arbitrary units relative to basal (vehicle-stimulated) levels. In parallel experiments, cells were incubated under identical conditions in the absence of [^32P] orthophosphate; HA-tagged TP receptors were immunoprecipitated from the same cell lines using the anti-HA 101R antibody and immunoblots were screened using the anti-HA 3F10 horseradish peroxidase-conjugated antibody.

[4] = molecular target: T3, TPβ (Homo sapiens, UniProt P21731); assay: Intracellular calcium mobilization, HEK.TPβ cells; conditions: for effect of inhibitor on U46619-induced [Ca2+]i mobilization by TPβ: inhibitor pre-incubated 15 min, primary/secondary U46619 stimulation
T3 construct: expressed in transfected cells
T3 sequence (P21731 1-407 isoform P21731-2): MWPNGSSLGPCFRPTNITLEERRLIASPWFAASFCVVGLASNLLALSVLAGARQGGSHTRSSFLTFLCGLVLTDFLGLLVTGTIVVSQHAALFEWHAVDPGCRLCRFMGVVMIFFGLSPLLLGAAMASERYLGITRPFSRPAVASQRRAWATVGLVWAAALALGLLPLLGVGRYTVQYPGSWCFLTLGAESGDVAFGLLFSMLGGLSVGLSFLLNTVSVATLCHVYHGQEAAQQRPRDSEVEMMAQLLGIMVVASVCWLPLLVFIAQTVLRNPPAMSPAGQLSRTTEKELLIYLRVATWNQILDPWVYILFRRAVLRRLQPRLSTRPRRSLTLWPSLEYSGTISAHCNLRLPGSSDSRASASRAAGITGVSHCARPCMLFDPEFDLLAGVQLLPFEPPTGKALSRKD

[5] = molecular target: T4, TPα^S331A (Homo sapiens, UniProt P21731, S331A); assay: Agonist-mediated TP phosphorylation in whole cells, HEK.TPα^S331A
T4 construct: expressed in transfected cells
T4 sequence (P21731 1-343 S331A): T1 sequence (P21731 1-343) with S331A
Protocol: as §4

[6] = molecular target: T3, TPβ; assay: Intracellular calcium mobilization, HEK.TPβ cells
Protocol: as §1, §3, §2

[7] = 1 μM U46619 plus 50 nM KT 5823 pre-incubation

Cl.Cl.O=S(=O)(NCCNCC=Cc1ccc(Br)cc1)c1cccc2cnccc12 [H-89, N-[2-((p-bromocinnamyl)amino)ethyl]-5-isoquino-linesulfonamide, 2HCL]
effect of inhibitor on [Ca2+]i mobilization in response to primary or secondary U46619 ([1]; HEK.TPα, H-89 10 μM pre-incubation): no significant effect
Δ[Ca2+]i, U46619-induced ([1]; HEK.TPα, primary 1 μM U46619 in presence of 10 μM H-89): 220 ± 9.2 nM
Δ[Ca2+]i, U46619-induced ([1]; HEK.TPα, secondary 1 μM U46619 at 15 min in presence of 10 μM H-89): 0 nM
effect of inhibitor on [Ca2+]i mobilization in response to primary or secondary U46619 ([2]; H-89 10 μM pre-incubation): no significant effect
Δ[Ca2+]i, U46619-induced ([2]; primary 1 μM U46619 in presence of 10 μM H-89): 180 ± 10 nM
Δ[Ca2+]i, U46619-induced ([2]; secondary 1 μM U46619 at 15 min in presence of 10 μM H-89): 165 ± 8 nM

COC(=O)[C@@]1(OC)C[C@H]2O[C@]1(C)n1c3ccccc3c3c4c(c5c6ccccc6n2c5c31)C(=O)N(C)C4 [KT 5823]
U46619-mediated TPα phosphorylation relative to basal (vehicle) [3, 7]: 2 fold
reduction of agonist-induced TPα phosphorylation ([3]; pre-incubation with KT 5823, 1 μM U46619): 2.5 fold
effect of inhibitor on U46619-induced [Ca2+]i mobilization by TPβ [4]: no significant effect
Δ[Ca2+]i, U46619-induced ([4]; primary 1 μM U46619 in presence of 50 nM KT 5823): 170 ± 25 nM
Δ[Ca2+]i, U46619-induced ([4]; secondary 1 μM U46619 at 15 min in presence of 50 nM KT 5823): 0 nM
Δ[Ca2+]i, U46619-induced ([1]; HEK.TPα, primary 1 μM U46619 in presence of 50 nM KT 5823): 160 ± 7.9 nM
Δ[Ca2+]i, U46619-induced ([1]; HEK.TPα, secondary 1 μM U46619 at 15 min in presence of 50 nM KT 5823): 60 ± 7 nM
secondary U46619 [Ca2+]i response relative to primary response ([1]; in presence of KT 5823 (50 nM)): approximately 38%
U46619-mediated TPα^S331A phosphorylation relative to basal (vehicle) [5, 7]: 1.5 fold
effect on agonist-induced phosphorylation of TPα^S331A ([5]; preincubation with KT 5823): not significantly affected

CN(C)CCCn1cc(C2=C(c3c[nH]c4ccccc34)C(=O)NC2=O)c2ccccc21 [GF 109203X, 2-[1-(3-dimethylaminopropyl)-1H-indol-3-yl]-3-(1H-indol-3-yl)-maleimide]
Δ[Ca2+]i, U46619-induced ([1]; HEK.TPα, primary 1 μM U46619 in presence of 50 nM GF 109203X): 250 ± 12 nM
Δ[Ca2+]i, U46619-induced ([1]; HEK.TPα, secondary 1 μM U46619 at 15 min in presence of 50 nM GF 109203X): 90 ± 8 nM
secondary U46619 [Ca2+]i response relative to primary response ([1]; in presence of GF 109203X (50 nM)): 36%
Δ[Ca2+]i, U46619-induced ([2]; primary 1 μM U46619 in presence of 50 nM GF 109203X): 200 ± 9.8 nM
Δ[Ca2+]i, U46619-induced ([2]; secondary 1 μM U46619 at 15 min in presence of 50 nM GF 109203X): 200 ± 12 nM

COC(=O)[C@@H](N)CCCNC(N)=N[N+](=O)[O-] [L-NAME, NG-Nitro-L-arginine Methyl Ester, Hydrochloride]
Δ[Ca2+]i, U46619-induced ([6]; primary 1 μM U46619 in presence of 1 μM L-NAME): 220 ± 40 nM
Δ[Ca2+]i, U46619-induced ([6]; secondary 1 μM U46619 at 15 min in presence of 1 μM L-NAME): 0 nM
effect of inhibitor on U46619-induced [Ca2+]i mobilization by TPβ [4]: no significant effect
Δ[Ca2+]i, U46619-induced ([1]; HEK.TPα, primary 1 μM U46619 in presence of 1 μM L-NAME): 200 ± 9 nM
Δ[Ca2+]i, U46619-induced ([1]; HEK.TPα, secondary 1 μM U46619 at 15 min in presence of 1 μM L-NAME): 80 ± 5.9 nM

O=C1C(Nc2ccccc2)=CC(=O)c2ncccc21 [LY 83583, 6-Anilino-5,8-quinolinequinone]
Δ[Ca2+]i, U46619-induced ([6]; primary 1 μM U46619 in presence of 1 μM LY 83583): 185 ± 26 nM
Δ[Ca2+]i, U46619-induced ([6]; secondary 1 μM U46619 at 15 min in presence of 1 μM LY 83583): 0 nM
effect of inhibitor on U46619-induced [Ca2+]i mobilization by TPβ [4]: no significant effect
Δ[Ca2+]i, U46619-induced ([1]; HEK.TPα, primary 1 μM U46619 in presence of 1 μM LY 83583): 210 ± 12 nM
Δ[Ca2+]i, U46619-induced ([1]; HEK.TPα, secondary 1 μM U46619 at 15 min in presence of 1 μM LY 83583): 58 ± 6 nM
